Results from patent US20110015164A1, “METHOD OF TREATING MEN WITH METABOLIC AND ANTH[…]” (priority 2004, published 2011).

System: men with abdominal obesity, low to low-normal serum total testosterone levels and the metabolic syndrome
Experiment: Placebo-controlled treatment study in abdominally obese men with low to low-normal testosterone and the metabolic syndrome
Details: for increasing insulin sensitivity, treatment group relative to placebo / lowering triglycerides, treatment group relative to placebo / reducing visceral adipose tissue, treatment group relative to placebo: end of treatment
Method: (§1) Approximately 200 men are recruited with abdominal obesity (waist circumference >102 cm), low to low-normal serum total testosterone levels (<450 ng/dL), and the metabolic syndrome per NCEP criteria. NCEP criteria for diagnosis of the metabolic syndrome in men includes 3 of the following 5 components: Fasting glucose≧110 mg/dL, TG≧150 mg/dL, low HDL-C (<40 mg/dL), high waist circumference (>102 cm), BP≧130/≧85 mmHg. Since the study design calls for inclusion of abdominally obese men with waist circumference >102 cm, patients have at least 2 of the other 4 criteria to satisfy the NCEP criteria for the metabolic syndrome. Patients are randomized to placebo or treatment. Fasting blood samples are taken.
Periodic measurements of insulin/glycemic response to oral glucose tolerance test (OGTT) and insulin sensitivity index, fasting plasma glucose (FPG), fasting lipid profile (includes triglycerides, total cholesterol, low-density lipoprotein cholesterol, non-high-density lipoprotein cholesterol, high-density lipoprotein cholesterol, and free fatty acids), visceral fat mass, and blood pressure are taken.
as §1, with “taken. After a placebo run in, the treatment group receives daily administration of 0.5 mg N-(2,5-bis-trifluoromethyl-phenyl)-3-oxo-4-aza-4-methyl-5α-androst-1-ene-17β-carboxamide (dutasteride).” for “taken.”
as §1, with “glucose ≧110” for “glucose≧110”, “taken. After a placebo run in, the treatment group receives daily administration of N-(2-trifluoromethyl-phenyl)-3-oxo-4-aza-4-methyl-5α-androst-1-ene-17β-carboxamide.” for “taken.”
as §1, with “(≦450” for “(<450”, “glucose ≧110” for “glucose≧110”

[1] = Example 6: daily administration (dose not given)

Row | SMILES | tolerability of the treatment (Example 7: 25 mg daily) | increasing insulin sensitivity, treatment group relative to placebo (Example 7: 25 mg daily) | lowering triglycerides, treatment group relative to placebo (Example 7: 25 mg daily) | reducing visceral adipose tissue, treatment group relative to placebo (Example 7: 25 mg daily) | tolerability of the treatment [1] | increasing insulin sensitivity, treatment group relative to placebo [1] | lowering triglycerides, treatment group relative to placebo [1] | reducing visceral adipose tissue, treatment group relative to placebo [1]
1 | Cc1ccc(O[C@H]2C[C@H]3[C@@H]4[C@@H](C)C[C@H]5NC(=O)C=C[C@]5(C)[C@H]4CC[C@]3(C)C2)cc1 [3-oxo-4-aza-7β-methyl-16β-(4-methylphenoxy)-5α-androst-1-ene] | well tolerated | significant improvement | significant improvement | significant improvement | – | – | – | –
2 | CN1C(=O)C=C[C@]2(C)[C@H]3CC[C@]4(C)[C@@H](C(=O)Nc5ccccc5C(F)(F)F)CC[C@H]4[C@@H]3CC[C@@H]12 [N-(2-trifluoromethyl-phenyl)-3-oxo-4-aza-4-methyl-5α-androst-1-ene-17β-carboxamide] | – | – | – | – | well tolerated | significant improvement | significant improvement | significant improvement
